Reference: patent US10131652B2, “Pyrimidinyloxy benzene derivatives as herbicides” (E. I. DU PONT DE NEMOURS AND COMPANY, priority 2014, dated 2018)

Key:
Type in all cases: in vivo
[1] = test system: corn (Zea mays); assay: Test B pre-/postemergence plant response
Summary of the method: (§1)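 Greenhouse pots, loam/sand soil; compound formulated with surfactant in non-phytotoxic solvent. Preemergence soil spray and postemergence spray at 1–2 leaf stage run simultaneously. Visual injury, 0–100, about 10 days post-treatment.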

[2] = test system: wheat (Triticum aestivum); assay: Test B pre-/postemergence plant response
Summary of the method: as §1

[3] = test system: giant foxtail (Setaria faberii); assay: Test B pre-/postemergence plant response
Summary of the method: as §1

[4] = test system: barnyardgrass (Echinochloa crus-galli); assay: Test B pre-/postemergence plant response
Summary of the method: as §1

[5] = test system: pigweed (Amaranthus retroflexus); assay: Test B pre-/postemergence plant response
Summary of the method: as §1

[6] = test system: small-flower umbrella sedge (Cyperus difformis); assay: Test C flooded paddy test plant response; conditions: Flood, 250 g ai/ha; scale of 0 to 100 where 0 is no effect and 100 is complete control; 13 to 15 days
Summary of the method: (§2)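 Flooded-pot format, 3 cm water over soil maintained for the test duration; test compounds dispensed into the water at the 2-leaf stage. Greenhouse holding 13 to 15 days. Plants evaluated visually relative to untreated controls, 0 meaning no effect and 100 complete control.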

[7] = test system: rice (Oryza sativa); assay: Test C flooded paddy test plant response; conditions: Flood, 250 g ai/ha; scale of 0 to 100 where 0 is no effect and 100 is complete control; 13 to 15 days
Summary of the method: as §2

[8] = test system: ducksalad (Heteranthera limosa); assay: Test C flooded paddy test plant response; conditions: Flood, 250 g ai/ha; scale of 0 to 100 where 0 is no effect and 100 is complete control; 13 to 15 days
Summary of the method: as §2

[9] = test system: barnyardgrass (Echinochloa crus-galli); assay: Test C flooded paddy test plant response; conditions: Flood, 250 g ai/ha; scale of 0 to 100 where 0 is no effect and 100 is complete control; 13 to 15 days
Summary of the method: as §2

[10] = test system: winter wheat (Triticum aestivum); assay: Test D pre-/postemergence plant response
Summary of the method: (§3)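 Visual injury scoring (0–100) at 13 to 15 days in greenhouse. Preemergence sprays on seeded loam/sand; postemergence sprays on 1–4 leaf plants.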

[11] = test system: galium (catchweed bedstraw, Galium aparine); assay: Test D pre-/postemergence plant response
Summary of the method: as §3

[12] = test system: johnsongrass (Sorghum halepense); assay: Test D pre-/postemergence plant response
Summary of the method: as §3

[13] = test system: ragweed (common ragweed, Ambrosia elatior); assay: Test D pre-/postemergence plant response
Summary of the method: as §3

[14] = test system: yellow nutsedge (Cyperus esculentus); assay: Test D pre-/postemergence plant response
Summary of the method: as §3

[15] = test system: oilseed rape (Brassica napus); assay: Test D pre-/postemergence plant response
Summary of the method: as §3

[16] = 125 g ai/ha, postemergence, 0 to 100 scale, 0 no effect, 100 complete control
[17] = Postemergence, 31 g ai/ha, 0 to 100 scale (0 no effect, 100 complete control)
[18] = 31 g ai/ha, Preemergence, 0 to 100 scale where 0 is no effect and 100 is complete control
[19] = Preemergence, 125 g ai/ha, 0 to 100 scale (0 no effect, 100 complete control)
[20] = Postemergence, 31 g ai/ha, scale 0 to 100 (0 no effect, 100 complete control)
[21] = Postemergence, 62 g ai/ha, scale 0 to 100, 0 no effect, 100 complete control
[22] = Postemergence, 125 g ai/ha, scale 0 to 100, 0 no effect, 100 complete control
[23] = Preemergence, 16 g ai/ha, scale 0 to 100 (0 no effect, 100 complete control)
[24] = Preemergence, 31 g ai/ha, scale 0 to 100 (0 no effect, 100 complete control)
[25] = Preemergence, 62 g ai/ha, scale 0 to 100 (0 no effect, 100 complete control)
[26] = Postemergence, 500 g ai/ha, 0 to 100 scale (0 no effect, 100 complete control)
[27] = Preemergence, 500 g ai/ha, 0 to 100 scale where 0 is no effect and 100 is complete control
[28] = Preemergence, 4 g ai/ha, scale 0 to 100 (0 no effect, 100 complete control)
[29] = Preemergence, 8 g ai/ha, scale 0 to 100 (0 no effect, 100 complete control)

Cc1cc(-c2c(F)cccc2Oc2ncc(Cl)cn2)on1 [Compound 229]
100: Plant response rating, Pigweed [5, 18] | Plant response rating, Pigweed [5, 16] | Pigweed plant response rating [5, 19] | Plant response rating (scale 0 to 100), Oilseed Rape ([15]; Preemergence, 125 g ai/ha) | Plant response rating, Oilseed Rape [15, 24] | Plant response rating, Oilseed Rape [15, 25]
60: Plant response rating, Ragweed [13, 22] | Oilseed Rape plant response rating [15, 21]
30: Plant response rating, Corn [1, 16]
20: Plant response rating, Barnyardgrass [4, 17]
0: Plant response rating, Corn [1, 17] | Plant response rating, Wheat [2, 17] | Plant response rating (scale 0 to 100), Wheat ([10]; Postemergence, 16 g ai/ha) | Plant response rating, Wheat [10, 23] | Plant response rating, Wheat [10, 24] | Plant response rating, Wheat [10, 25] | Plant response rating (scale 0 to 100), Johnsongrass ([12]; Postemergence, 16 g ai/ha) | Johnsongrass plant response rating [12, 20] | Plant response rating, Johnsongrass [12, 21] | Plant response rating (scale 0 to 100), Nutsedge, Yellow ([14]; Postemergence, 16 g ai/ha) | Nutsedge, Yellow plant response rating [14, 20] | Plant response rating, Nutsedge, Yellow [14, 23] | Plant response rating, Nutsedge, Yellow [14, 24]
55: Barnyardgrass plant response rating [9] | Plant response rating, Ragweed [13, 25]
40: Plant response rating, Wheat [2, 16] | Plant response rating, Galium [11, 23]
80: Plant response rating, Foxtail, Giant [3, 16] | Plant response rating, Galium [11, 22] | Plant response rating, Galium [11, 24] | Plant response rating, Oilseed Rape [15, 22]
50: Plant response rating, Foxtail, Giant [3, 17] | Plant response rating, Barnyardgrass [4, 18] | Ragweed plant response rating [13, 20] | Plant response rating, Ragweed [13, 24]
25: Plant response rating, Johnsongrass [12, 22]
98: Plant response rating (scale 0 to 100), Galium ([11]; Preemergence, 125 g ai/ha) | Plant response rating, Galium [11, 25]
35: Plant response rating (scale 0 to 100), Ragweed ([13]; Postemergence, 16 g ai/ha) | Plant response rating, Ragweed [13, 23]
70: Plant response rating, Barnyardgrass [4, 16] | Plant response rating, Pigweed [5, 17] | Plant response rating (scale 0 to 100), Galium ([11]; Postemergence, 16 g ai/ha) | Galium plant response rating [11, 20] | Plant response rating (scale 0 to 100), Johnsongrass ([12]; Preemergence, 125 g ai/ha) | Ragweed plant response rating [13, 21] | Oilseed Rape plant response rating [15, 20]
15: Rice plant response rating [7] | Plant response rating (scale 0 to 100), Wheat ([10]; Preemergence, 125 g ai/ha)
45: Plant response rating, Johnsongrass [12, 25] | Plant response rating (scale 0 to 100), Nutsedge, Yellow ([14]; Preemergence, 125 g ai/ha) | Plant response rating (scale 0 to 100), Oilseed Rape ([15]; Postemergence, 16 g ai/ha)
5: Wheat plant response rating [10, 21]
95: Plant response rating (scale 0 to 100), Ragweed ([13]; Preemergence, 125 g ai/ha)
65: Plant response rating, Galium [11, 21]
10: Wheat plant response rating [10, 20] | Plant response rating, Wheat [10, 22] | Plant response rating, Johnsongrass [12, 23] | Plant response rating, Johnsongrass [12, 24] | Nutsedge, Yellow plant response rating [14, 21] | Plant response rating, Nutsedge, Yellow [14, 22] | Plant response rating, Nutsedge, Yellow [14, 25]
90: Plant response rating, Foxtail, Giant [3, 18] | Foxtail, Giant plant response rating [3, 19] | Barnyardgrass plant response rating [4, 19] | Sedge, Umbrella plant response rating [6] | Ducksalad plant response rating [8] | Plant response rating, Oilseed Rape [15, 23]

N#Cc1cccc(Oc2ncc(Cl)cn2)c1-c1cc(C(F)(F)F)on1 [Compound 157]
0: Plant response rating, Corn [1, 16] | Rice plant response rating [7] | Barnyardgrass plant response rating [9] | Plant response rating (scale 0 to 100), Wheat ([10]; Postemergence, 4 g ai/ha) | Plant response rating (scale 0 to 100), Wheat ([10]; Postemergence, 8 g ai/ha) | Wheat plant response rating [10, 20] | Plant response rating, Wheat [10, 28] | Plant response rating, Wheat [10, 29] | Plant response rating, Wheat [10, 23] | Plant response rating (scale 0 to 100), Johnsongrass ([12]; Postemergence, 4 g ai/ha) | Plant response rating (scale 0 to 100), Johnsongrass ([12]; Postemergence, 8 g ai/ha) | Johnsongrass plant response rating [12, 20] | Plant response rating, Johnsongrass [12, 28] | Plant response rating, Johnsongrass [12, 29] | Plant response rating, Johnsongrass [12, 23] | Plant response rating, Ragweed [13, 28] | Plant response rating, Ragweed [13, 29] | Plant response rating, Ragweed [13, 23] | Plant response rating, Ragweed [13, 24] | Plant response rating (scale 0 to 100), Nutsedge, Yellow ([14]; Postemergence, 4 g ai/ha) | Plant response rating, Nutsedge, Yellow [14, 28] | Plant response rating, Nutsedge, Yellow [14, 29] | Plant response rating, Nutsedge, Yellow [14, 23] | Plant response rating, Nutsedge, Yellow [14, 24] | Plant response rating (scale 0 to 100), Oilseed Rape ([15]; Postemergence, 4 g ai/ha) | Plant response rating, Oilseed Rape [15, 28] | Plant response rating, Oilseed Rape [15, 29]
100: Plant response rating, Foxtail, Giant [3, 27] | Plant response rating, Pigweed [5, 16] | Plant response rating, Pigweed [5, 26] | Pigweed plant response rating [5, 19] | Plant response rating, Pigweed [5, 27] | Plant response rating, Oilseed Rape [15, 24]
5: Plant response rating, Wheat [10, 24] | Plant response rating, Johnsongrass [12, 24] | Plant response rating (scale 0 to 100), Nutsedge, Yellow ([14]; Postemergence, 8 g ai/ha) | Plant response rating (scale 0 to 100), Oilseed Rape ([15]; Postemergence, 8 g ai/ha)
85: Plant response rating, Galium [11, 24]
80: Plant response rating, Foxtail, Giant [3, 26] | Foxtail, Giant plant response rating [3, 19] | Plant response rating, Barnyardgrass [4, 27] | Plant response rating, Galium [11, 29] | Plant response rating, Galium [11, 23]
10: Plant response rating (scale 0 to 100), Galium ([11]; Postemergence, 4 g ai/ha) | Nutsedge, Yellow plant response rating [14, 20]
15: Plant response rating (scale 0 to 100), Ragweed ([13]; Postemergence, 8 g ai/ha)
50: Plant response rating, Wheat [2, 16] | Plant response rating (scale 0 to 100), Galium ([11]; Postemergence, 8 g ai/ha) | Plant response rating (scale 0 to 100), Ragweed ([13]; Postemergence, 4 g ai/ha)
25: Ragweed plant response rating [13, 20] | Oilseed Rape plant response rating [15, 20]
40: Plant response rating, Corn [1, 26] | Sedge, Umbrella plant response rating [6] | Ducksalad plant response rating [8] | Plant response rating, Oilseed Rape [15, 23]
70: Plant response rating, Wheat [2, 26] | Plant response rating, Foxtail, Giant [3, 16] | Galium plant response rating [11, 20] | Plant response rating, Galium [11, 28]
60: Plant response rating, Barnyardgrass [4, 26]
20: Plant response rating, Barnyardgrass [4, 16] | Barnyardgrass plant response rating [4, 19]

CC(F)(F)c1cc(-c2ccccc2Oc2ncc(Br)cn2)no1 [Compound 149]
100: Foxtail, Giant plant response rating [3, 19] | Plant response rating, Pigweed [5, 16] | Pigweed plant response rating [5, 19]
5: Plant response rating, Nutsedge, Yellow [14, 21] | Plant response rating, Nutsedge, Yellow [14, 22]
95: Plant response rating, Galium [11, 22]
80: Plant response rating, Pigweed [5, 18] | Ducksalad plant response rating [8]
45: Plant response rating, Ragweed [13, 22]
0: Plant response rating, Wheat [2, 17] | Rice plant response rating [7] | Barnyardgrass plant response rating [9] | Wheat plant response rating [10, 20] | Plant response rating, Wheat [10, 21] | Nutsedge, Yellow plant response rating [14, 20]
85: Plant response rating, Oilseed Rape [15, 22]
90: Plant response rating, Pigweed [5, 17]
65: Sedge, Umbrella plant response rating [6]
40: Plant response rating, Barnyardgrass [4, 16]
10: Plant response rating, Corn [1, 17] | Plant response rating, Wheat [2, 16] | Plant response rating, Foxtail, Giant [3, 17] | Plant response rating, Barnyardgrass [4, 18] | Plant response rating, Barnyardgrass [4, 17] | Plant response rating, Wheat [10, 22] | Johnsongrass plant response rating [12, 20] | Plant response rating, Johnsongrass [12, 22]
70: Plant response rating, Foxtail, Giant [3, 18] | Barnyardgrass plant response rating [4, 19] | Plant response rating, Galium [11, 21]
15: Plant response rating, Johnsongrass [12, 21]
60: Plant response rating, Foxtail, Giant [3, 16] | Galium plant response rating [11, 20] | Plant response rating, Oilseed Rape [15, 21]
20: Plant response rating, Corn [1, 16]
30: Ragweed plant response rating [13, 20] | Plant response rating, Ragweed [13, 21] | Oilseed Rape plant response rating [15, 20]
